Measurements as given in ChEMBL document CHEMBL4699433, “Rational design, synthesis and testing of novel tricyclic topoisomerase inhibitors for the treatment of bacterial infections part 2” (RSC Med Chem, 2020).
In brackets after ≈: the same amount, converted by molar mass.

What was measured:
Haemophilus influenzae = assay: Antibacterial activity against Haemophilus influenzae ATCC 49247 assessed as reduction in bacterial growth by CLSI based broth microdilution method; type: functional
Cytochrome P450 2D6 = Cytochrome P450 2D6 (Homo sapiens, UniProt P10635); assay: Inhibition of CYP2D6 (unknown origin); type: ADME
[1] = Cytotoxicity against human HepG2 cells; type: cell-based
[2] = Intrinsic clearance in human hepatocytes assessed per 10^6 cells; type: ADME, cell-based, Hepatocyte; conditions: read-out: CLH
Staphylococcus aureus [3] = assay: Antibacterial activity against AMG- and TET-resistant (Mu50) GyrA (S84L,E409L), GrlA (S80F), methicillin-resistant Staphylococcus aureus NRS1 assessed as reduction in bacterial growth by CLSI based broth microdilution method; type: functional
Neisseria gonorrhoeae [4] = assay: Antibacterial activity against wild type Neisseria gonorrhoeae ATCC 700825 assessed as reduction in bacterial growth by agar dilution method; type: functional
Enterococcus faecium [5] = assay: Antibacterial activity against wild type Enterococcus faecium ATCC 19434 assessed as reduction in bacterial growth by CLSI based broth microdilution method; type: functional
DNA gyrase = DNA gyrase (Staphylococcus aureus, UniProt P0A0K8+P20831); assay: Inhibition of Staphylococcus aureus DNA gyrase using relaxed pBR322 as substrate incubated for 30 mins by ethidium bromide staining based gel electrophoresis analysis; type: protein-complex assay
Staphylococcus aureus [6] = assay: Antibacterial activity against FQ-resistant methicillin-resistant Staphylococcus aureus NRS74 assessed as reduction in bacterial growth by CLSI based broth microdilution method; type: functional
Staphylococcus aureus [7] = assay: Antibacterial activity against wild type methicillin-sensitive Staphylococcus aureus ATCC 29213 assessed as reduction in bacterial growth by CLSI based broth microdilution method; type: functional
Staphylococcus aureus [8] = assay: Antibacterial activity against FQ-resistant, methicillin-resistant Staphylococcus aureus NRS482 assessed as reduction in bacterial growth by CLSI based broth microdilution method; type: functional
[9] = system: Staphylococcus epidermidis; assay: Antibacterial activity against wild type Staphylococcus epidermidis ATCC 12228 assessed as reduction in bacterial growth by CLSI based broth microdilution method; type: functional
Streptococcus pyogenes = assay: Antibacterial activity against wild type Streptococcus pyogenes ATCC 19615 assessed as reduction in bacterial growth by CLSI based broth microdilution method; type: functional
Staphylococcus aureus [10] = assay: Antibacterial activity against AMG-, QAC-, TMP- resistant methicillin- resistant Staphylococcus aureus NRS106 assessed as reduction in bacterial growth by CLSI based broth microdilution method; type: functional
Enterococcus faecium [11] = assay: Antibacterial activity against VAN-resistant Enterococcus faecium ATCC 700221 assessed as reduction in bacterial growth by CLSI based broth microdilution method; type: functional
Staphylococcus aureus [12] = assay: Antibacterial activity against Staphylococcus aureus ATCC 43300 assessed as reduction in bacterial growth by CLSI based broth microdilution method; type: functional
Topoisomerase IV = Topoisomerase IV (Staphylococcus aureus, UniProt P0C1S7+P0C1U9); assay: Inhibition of Staphylococcus aureus topoisomerase IV using kDNA as substrate incubated for 30 mins by ethidium bromide staining based gel electrophoresis analysis; type: protein-complex assay
Staphylococcus aureus [13] = assay: Antibacterial activity against Staphylococcus aureus clinical isolate assessed as reduction in bacterial growth by CLSI based broth microdilution method; type: functional
TK6 [14] = assay: Genotoxicity in human TK6 cells at 200 uM in absence of S9 fraction by BlueScreen assay; type: toxicity, cell-based; conditions: tk6, 200 µM
[15] = system: Staphylococcus epidermidis; assay: Antibacterial activity against MRSE AMG-, ERY-resistant Staphylococcus epidermidis NRS101 assessed as reduction in bacterial growth by CLSI based broth microdilution method; type: functional
Staphylococcus aureus [16] = assay: Antibacterial activity against COL-resistant, methicillin-resistant Staphylococcus aureus NRS100 assessed as reduction in bacterial growth by CLSI based broth microdilution method; type: functional
Staphylococcus aureus [17] = assay: Antibacterial activity against MUP resistant (RN4220 + pGO400), methicillin-resistant Staphylococcus aureus NRS107 assessed as reduction in bacterial growth by CLSI based broth microdilution method; type: functional
Enterococcus faecalis = assay: Antibacterial activity against wild type Enterococcus faecalis ATCC 29212 assessed as reduction in bacterial growth by CLSI based broth microdilution method; type: functional
Staphylococcus aureus [18] = assay: Antibacterial activity against VAN resistant methicillin- resistant Staphylococcus aureus VRS8 assessed as reduction in bacterial growth by CLSI based broth microdilution method; type: functional
[19] = Efflux ratio of permeability in human Caco2 cells; type: ADME, cell-based; conditions: Caco-2
[20] = Kinetic solubility of compound at pH 7.4; type: physicochemical; conditions: buffer, read-out: Kinetic_solubility
[21] = Protein binding in human plasma assessed as free fraction; type: ADME, cell-free
TK6 [22] = assay: Genotoxicity in human TK6 cells at 200 uM in presence of S9 fraction by BlueScreen assay; type: toxicity, cell-based; conditions: s9, 200 µM
Staphylococcus aureus [23] = assay: Antibacterial activity against LZD-resistant, methicillin-resistant Staphylococcus aureus NRS127 assessed as reduction in bacterial growth by CLSI based broth microdilution method; type: functional
Cytochrome P450 3A4 = Cytochrome P450 3A4 (Homo sapiens, UniProt P08684); assay: Inhibition of CYP3A4 (unknown origin); type: ADME
[24] = target: Voltage-gated inwardly rectifying potassium channel KCNH2 (Homo sapiens, UniProt Q12809); assay: Inhibition of human ERG by patch clamp assay
Cytochrome P450 2C19 = Cytochrome P450 2C19 (Homo sapiens, UniProt P33261); assay: Inhibition of CYP2C19 (unknown origin); type: ADME
Staphylococcus aureus [25] = assay: Antibacterial activity against CA-MRSA ERY-, TET-resistant, FQ Int resistant (USA300 LAC) Staphylococcus aureus NRS384 assessed as reduction in bacterial growth by CLSI based broth microdilution method; type: functional
[26] = Apparent permeability in human Caco2 cells; type: ADME, cell-based; conditions: Caco-2
Neisseria gonorrhoeae [27] = assay: Antibacterial activity against wild-type Neisseria gonorrhoeae ATCC 49226 assessed as reduction in bacterial growth by agar dilution method; type: functional
[28] = target: Voltage-dependent L-type calcium channel subunit alpha-1C (Homo sapiens, UniProt Q13936); assay: Inhibition of Cav1.2 (unknown origin) by patch clamp assay
Staphylococcus aureus [29] = assay: Antibacterial activity against AMG-resistant, methicillin-resistant Staphylococcus aureus NRS108 assessed as reduction in bacterial growth by CLSI based broth microdilution method; type: functional
Staphylococcus aureus [30] = assay: Antibacterial activity against Staphylococcus aureus VRS1 assessed as reduction in bacterial growth by CLSI based broth microdilution method; type: functional
Cytochrome P450 2C9 = Cytochrome P450 2C9 (Homo sapiens, UniProt P11712); assay: Inhibition of CYP2C9 (unknown origin); type: ADME
Streptococcus pneumoniae = assay: Antibacterial activity against Streptococcus pneumoniae ATCC 49619 assessed as reduction in bacterial growth by CLSI based broth microdilution method; type: functional
Staphylococcus aureus [31] = assay: Antibacterial activity against LZD-resistant methicillin-resistant Staphylococcus aureus NRS271 assessed as reduction in bacterial growth by CLSI based broth microdilution method; type: functional
Cytochrome P450 1A2 = Cytochrome P450 1A2 (Homo sapiens, UniProt P05177); assay: Inhibition of CYP1A2 (unknown origin); type: ADME
Staphylococcus aureus [32] = assay: Antibacterial activity against methicillin-resistant Staphylococcus aureus N315 NRS70 assessed as reduction in bacterial growth by CLSI based broth microdilution method; type: functional
[33] = target: Sodium channel protein type 5 subunit alpha (Homo sapiens, UniProt Q14524); assay: Inhibition of Nav1.5 (unknown origin) by patch clamp assay
Escherichia coli = assay: Antibacterial activity against Escherichia coli ATCC 25922 assessed as reduction in bacterial growth by CLSI based broth microdilution method; type: functional

Voltage-gated inwardly rectifying potassium channel KCNH2, sequence (Q12809 whole entry): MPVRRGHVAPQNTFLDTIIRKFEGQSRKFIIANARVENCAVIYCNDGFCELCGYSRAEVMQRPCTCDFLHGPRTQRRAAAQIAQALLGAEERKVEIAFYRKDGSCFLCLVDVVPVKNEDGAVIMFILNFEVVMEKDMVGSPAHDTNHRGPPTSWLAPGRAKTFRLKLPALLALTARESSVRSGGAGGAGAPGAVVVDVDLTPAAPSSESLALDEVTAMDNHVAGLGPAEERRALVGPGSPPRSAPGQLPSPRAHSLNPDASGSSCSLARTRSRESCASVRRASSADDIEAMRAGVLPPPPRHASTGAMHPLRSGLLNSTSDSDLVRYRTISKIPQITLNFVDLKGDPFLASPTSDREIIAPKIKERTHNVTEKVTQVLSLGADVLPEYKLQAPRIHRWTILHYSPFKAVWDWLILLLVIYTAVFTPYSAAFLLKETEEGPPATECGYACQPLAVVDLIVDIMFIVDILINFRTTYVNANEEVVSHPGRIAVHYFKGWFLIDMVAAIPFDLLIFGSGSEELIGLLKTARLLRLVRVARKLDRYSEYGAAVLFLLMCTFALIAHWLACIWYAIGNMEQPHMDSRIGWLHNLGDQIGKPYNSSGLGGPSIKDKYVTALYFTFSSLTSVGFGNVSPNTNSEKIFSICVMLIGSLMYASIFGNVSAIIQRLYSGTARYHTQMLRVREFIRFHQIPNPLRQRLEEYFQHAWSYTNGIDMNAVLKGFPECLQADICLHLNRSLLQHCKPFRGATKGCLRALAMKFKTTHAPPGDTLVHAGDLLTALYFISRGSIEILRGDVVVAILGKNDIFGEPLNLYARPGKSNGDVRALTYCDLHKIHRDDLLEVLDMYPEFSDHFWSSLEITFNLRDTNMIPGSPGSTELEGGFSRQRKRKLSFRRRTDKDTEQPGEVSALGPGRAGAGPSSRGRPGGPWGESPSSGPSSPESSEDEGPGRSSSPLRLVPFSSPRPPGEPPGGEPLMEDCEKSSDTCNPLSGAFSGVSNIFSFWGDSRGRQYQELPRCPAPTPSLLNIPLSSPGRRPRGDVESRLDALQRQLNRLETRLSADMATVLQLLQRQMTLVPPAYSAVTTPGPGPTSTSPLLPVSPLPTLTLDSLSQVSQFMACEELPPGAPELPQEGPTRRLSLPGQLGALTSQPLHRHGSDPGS
Cytochrome P450 2D6, sequence (P10635 whole entry): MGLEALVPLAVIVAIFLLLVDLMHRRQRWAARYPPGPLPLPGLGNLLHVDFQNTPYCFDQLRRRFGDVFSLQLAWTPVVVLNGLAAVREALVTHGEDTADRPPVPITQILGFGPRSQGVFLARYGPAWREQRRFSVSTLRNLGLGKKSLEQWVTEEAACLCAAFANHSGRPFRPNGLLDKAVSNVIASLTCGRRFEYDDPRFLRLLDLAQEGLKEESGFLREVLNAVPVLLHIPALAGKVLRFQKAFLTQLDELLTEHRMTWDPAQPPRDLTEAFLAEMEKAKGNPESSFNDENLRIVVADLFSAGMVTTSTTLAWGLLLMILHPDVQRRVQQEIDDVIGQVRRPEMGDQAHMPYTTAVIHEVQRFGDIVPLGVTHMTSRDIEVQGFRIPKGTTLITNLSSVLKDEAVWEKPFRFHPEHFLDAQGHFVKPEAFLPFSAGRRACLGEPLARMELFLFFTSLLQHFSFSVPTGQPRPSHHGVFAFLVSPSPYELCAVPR
Cytochrome P450 1A2, sequence (P05177 whole entry): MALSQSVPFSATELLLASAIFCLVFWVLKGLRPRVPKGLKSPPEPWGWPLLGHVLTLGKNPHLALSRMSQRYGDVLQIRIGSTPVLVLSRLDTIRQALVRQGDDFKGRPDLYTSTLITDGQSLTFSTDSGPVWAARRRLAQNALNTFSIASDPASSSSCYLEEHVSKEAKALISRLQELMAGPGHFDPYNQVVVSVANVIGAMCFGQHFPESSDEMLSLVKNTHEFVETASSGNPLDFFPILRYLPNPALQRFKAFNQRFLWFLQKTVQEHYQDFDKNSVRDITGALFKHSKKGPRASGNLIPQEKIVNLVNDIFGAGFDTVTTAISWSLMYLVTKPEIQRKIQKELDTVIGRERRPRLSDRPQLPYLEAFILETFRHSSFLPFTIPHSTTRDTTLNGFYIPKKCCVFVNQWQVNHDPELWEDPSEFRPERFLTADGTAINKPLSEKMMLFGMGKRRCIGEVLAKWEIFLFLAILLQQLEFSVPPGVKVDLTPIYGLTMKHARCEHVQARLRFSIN
Topoisomerase IV, sequence (P0C1U9 whole entry): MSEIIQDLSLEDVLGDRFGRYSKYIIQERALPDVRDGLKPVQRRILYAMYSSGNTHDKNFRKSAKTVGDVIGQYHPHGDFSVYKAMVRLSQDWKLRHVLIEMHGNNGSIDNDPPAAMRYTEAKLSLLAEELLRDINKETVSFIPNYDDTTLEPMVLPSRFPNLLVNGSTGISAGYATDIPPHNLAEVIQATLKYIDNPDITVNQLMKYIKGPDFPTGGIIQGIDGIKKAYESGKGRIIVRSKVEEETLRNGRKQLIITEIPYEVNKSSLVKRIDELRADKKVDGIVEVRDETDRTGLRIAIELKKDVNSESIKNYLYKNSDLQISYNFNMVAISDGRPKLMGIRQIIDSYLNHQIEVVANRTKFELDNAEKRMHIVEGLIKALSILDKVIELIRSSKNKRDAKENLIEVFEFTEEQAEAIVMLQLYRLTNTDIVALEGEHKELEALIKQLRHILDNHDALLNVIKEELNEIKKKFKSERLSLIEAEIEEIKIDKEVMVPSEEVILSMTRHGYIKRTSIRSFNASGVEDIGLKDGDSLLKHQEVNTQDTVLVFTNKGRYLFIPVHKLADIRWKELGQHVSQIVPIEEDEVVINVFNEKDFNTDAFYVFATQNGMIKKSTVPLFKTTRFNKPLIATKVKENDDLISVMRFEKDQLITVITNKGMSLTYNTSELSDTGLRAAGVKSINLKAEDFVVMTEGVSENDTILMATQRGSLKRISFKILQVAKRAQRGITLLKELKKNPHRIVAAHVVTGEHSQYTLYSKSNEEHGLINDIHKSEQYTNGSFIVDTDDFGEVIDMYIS
Topoisomerase IV, sequence (P0C1S7 whole entry): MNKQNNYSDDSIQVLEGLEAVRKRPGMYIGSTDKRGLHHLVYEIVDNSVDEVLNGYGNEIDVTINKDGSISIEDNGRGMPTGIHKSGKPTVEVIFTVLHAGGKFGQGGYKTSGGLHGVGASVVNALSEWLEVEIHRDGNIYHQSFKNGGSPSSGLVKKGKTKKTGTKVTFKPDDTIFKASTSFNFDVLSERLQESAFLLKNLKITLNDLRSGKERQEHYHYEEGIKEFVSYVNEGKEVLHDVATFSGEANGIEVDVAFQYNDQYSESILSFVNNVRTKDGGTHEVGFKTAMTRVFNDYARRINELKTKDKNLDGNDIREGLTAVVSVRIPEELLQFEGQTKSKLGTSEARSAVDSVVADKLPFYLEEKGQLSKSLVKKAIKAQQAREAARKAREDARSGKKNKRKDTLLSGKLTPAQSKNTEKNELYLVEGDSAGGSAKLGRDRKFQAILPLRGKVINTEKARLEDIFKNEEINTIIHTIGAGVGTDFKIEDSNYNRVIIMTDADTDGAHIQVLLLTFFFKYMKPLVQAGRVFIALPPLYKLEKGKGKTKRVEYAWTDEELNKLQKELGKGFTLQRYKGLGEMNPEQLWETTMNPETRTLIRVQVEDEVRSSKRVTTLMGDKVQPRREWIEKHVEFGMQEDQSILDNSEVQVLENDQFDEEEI
Cytochrome P450 3A4, sequence (P08684 whole entry): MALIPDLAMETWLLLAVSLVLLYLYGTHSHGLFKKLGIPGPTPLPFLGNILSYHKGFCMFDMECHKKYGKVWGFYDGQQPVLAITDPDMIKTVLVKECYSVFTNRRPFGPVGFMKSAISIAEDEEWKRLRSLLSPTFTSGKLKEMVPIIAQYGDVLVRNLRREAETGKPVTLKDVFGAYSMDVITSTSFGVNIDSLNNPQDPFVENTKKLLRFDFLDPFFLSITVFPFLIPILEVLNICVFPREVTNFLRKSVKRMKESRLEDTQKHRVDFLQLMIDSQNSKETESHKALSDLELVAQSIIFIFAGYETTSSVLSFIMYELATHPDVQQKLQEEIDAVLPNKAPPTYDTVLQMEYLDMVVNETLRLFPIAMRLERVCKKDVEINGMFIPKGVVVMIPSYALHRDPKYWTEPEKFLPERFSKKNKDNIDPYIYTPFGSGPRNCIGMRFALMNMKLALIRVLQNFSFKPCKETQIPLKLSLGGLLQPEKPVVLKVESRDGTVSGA
Cytochrome P450 2C19, sequence (P33261 whole entry): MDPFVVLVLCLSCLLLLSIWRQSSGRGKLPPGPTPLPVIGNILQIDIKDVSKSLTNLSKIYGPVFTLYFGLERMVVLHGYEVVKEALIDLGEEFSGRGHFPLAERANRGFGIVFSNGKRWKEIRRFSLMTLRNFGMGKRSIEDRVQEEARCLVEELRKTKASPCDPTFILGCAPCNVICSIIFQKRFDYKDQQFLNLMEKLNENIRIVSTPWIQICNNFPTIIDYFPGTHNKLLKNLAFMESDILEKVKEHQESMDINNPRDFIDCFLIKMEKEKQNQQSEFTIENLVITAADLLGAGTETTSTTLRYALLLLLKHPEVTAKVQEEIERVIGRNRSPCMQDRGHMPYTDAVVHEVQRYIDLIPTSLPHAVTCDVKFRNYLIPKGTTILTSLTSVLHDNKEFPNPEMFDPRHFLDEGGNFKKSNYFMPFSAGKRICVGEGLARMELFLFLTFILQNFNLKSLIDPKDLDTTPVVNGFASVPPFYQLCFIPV

Structure (SMILES): Cc1nc2c(=O)n(C3CC3)c3c(Cl)c(N4CC[C@@H]([C@H](C)N)C4)c(F)cc3c2o1
- MIC (Haemophilus influenzae): 1 µg/mL (≈ 2.47 µM)
- IC50 (Cytochrome P450 2D6): 30 µM
- CC50 [1]: 32 µg/mL (≈ 79 µM)
- hepatocyte CLint [2]: 3 µL/min/1e6 cells
- MIC (Staphylococcus aureus [3]): 0.25 µg/mL (≈ 0.617 µM)
- MIC (Neisseria gonorrhoeae [4]): 0.03 µg/mL (≈ 0.0741 µM)
- MIC (Enterococcus faecium [5]): 8 µg/mL (≈ 19.8 µM)
- IC50 (DNA gyrase): 1.82 µM
- MIC (Staphylococcus aureus [6]): 0.12 µg/mL (≈ 0.296 µM)
- MIC (Staphylococcus aureus [7]): 0.06 µg/mL (≈ 0.148 µM)
- MIC (Staphylococcus aureus [8]): 0.12 µg/mL (≈ 0.296 µM)
- MIC [9]: 0.06 µg/mL (≈ 0.148 µM)
- MIC (Streptococcus pyogenes): 0.015 µg/mL (≈ 0.037 µM)
- MIC (Staphylococcus aureus [10]): 0.12 µg/mL (≈ 0.296 µM)
- MIC (Enterococcus faecium [11]): 8 µg/mL (≈ 19.8 µM)
- MIC (Staphylococcus aureus [12]): 0.12 µg/mL (≈ 0.296 µM)
- IC50 (Topoisomerase IV): 6.1 µM
- MIC90 (Staphylococcus aureus [13]): 0.5 µg/mL (≈ 1.23 µM)
- Activity (TK6 [14]): Non-Toxic
- MIC [15]: 1 µg/mL (≈ 2.47 µM)
- MIC (Staphylococcus aureus [16]): 0.12 µg/mL (≈ 0.296 µM)
- MIC (Staphylococcus aureus [17]): 0.12 µg/mL
- MIC (Enterococcus faecalis): 0.12 µg/mL (≈ 0.296 µM)
- MIC (Staphylococcus aureus [18]): 0.5 µg/mL (≈ 1.23 µM)
- efflux ratio [19]: 2.2
- solubility kinetic [20]: > 100 µM
- fraction unbound [21]: 0.244
- Activity (TK6 [22]): Toxic
- MIC (Staphylococcus aureus [23]): 0.5 µg/mL (≈ 1.23 µM)
- IC50 (Cytochrome P450 3A4): 17.5 µM
- IC50 [24]: 28.7 µM
- IC50 (Cytochrome P450 2C19): 30 µM
- MIC (Staphylococcus aureus [25]): 0.12 µg/mL (≈ 0.296 µM)
- Papp [26]: 20.7 ×10⁻⁶ cm/s
- MIC (Neisseria gonorrhoeae [27]): 0.12 µg/mL (≈ 0.296 µM)
- IC50 [28]: 93.6 µM
- MIC (Staphylococcus aureus [29]): 0.12 µg/mL (≈ 0.296 µM)
- MIC (Staphylococcus aureus [30]): 0.5 µg/mL (≈ 1.23 µM)
- IC50 (Cytochrome P450 2C9): 16.4 µM
- MIC (Streptococcus pneumoniae): 0.015 µg/mL (≈ 0.037 µM)
- MIC (Staphylococcus aureus [31]): 0.5 µg/mL (≈ 1.23 µM)
- IC50 (Cytochrome P450 1A2): 30 µM
- MIC (Staphylococcus aureus [32]): 0.06 µg/mL (≈ 0.148 µM)
- IC50 [33]: 21.5 µM
- MIC (Escherichia coli): 0.5 µg/mL (≈ 1.23 µM)
